From US20260240851A1, “Treatment of Parkinson's Disease in a Patient Using a Glucocerebrosidase Activator” (BIAL - R&D Investments, S.A., priority 2023, published 2026)

Experiments:
[1] = Phase 2 placebo-controlled study of Compound A in GBA-PD (Example 3); type: in vivo, human
From the text: This study is a Phase 2, randomized, double-blind, placebo-controlled, multiple oral dose study of Compound A in subjects (aged 35 to 80 years, inclusive) with GBA-PD. The subjects have a clinical diagnosis of PD for at least 1 year and for no longer than 7 years before initiation of screening (for Part A), as confirmed by a neurologist using the MDS Criteria for Parkinson's Disease, have a modified Hoehn and Yahr score 2.5, have a score of ≥22 on the Montreal Cognitive Assessment (MoCA), and are receiving symptomatic treatment for PD. […] The objectives of this study are to investigate the efficacy, safety, tolerability, pharmacodynamics and PK of once-daily oral administration of Compound A.
Genetic screening of the subjects is performed using blood collected (preferably whole blood samples). Subjects are screened by sequencing of the full GBA1 gene, with specifications of any PD risk-associated variants that are identified. Subjects are also screened for the presence or absence of PD risk-associated variants in the LRRK2 (Leucine-rich repeat kinase 2) gene. Subjects who have an LRRK2 pathogenic variant are not eligible for Part B (Double-Blind Treatment) of the study.
Subjects that have a pathogenic variant in the glucocerebrosidase 1 (GBA1) gene (GBA-PD) (for example, see Appendix 1) and have been on a stable dose of PD medication for at least 30 days (at least 60 days for rasagiline) before commencing treatment are included in the next stage of the trial. In addition, subjects with the following are excluded from further treatment: • The subject has Gaucher's disease (GD), as defined by clinical signs and symptoms (i.e., hepatosplenomegaly, cytopenia, skeletal disease), and/or a medical history of marked deficiency of GCase plasmatic activity (preferably GCase whole blood activity) compatible with GD. • The subject is homozygous for a GBA1 pathogenic variant that is known to be associated with GD or compound heterozygous for 2 alleles that are known to be associated with GD. • The subject carries a known PD-associated LRRK2 pathogenic variant (for example, see Appendix 2). • The subject has atypical or secondary parkinsonism by medical history or in the opinion of the investigator. Atypical parkinsonism includes, but is not limited to, diagnoses of progressive supranuclear palsy, cortico-basal syndrome, and multiple system atrophy. Secondary parkinsonism includes drug-induced, toxin-induced, postinfectious, posttraumatic, or vascular parkinsonism. • The subject is using a strong CYP3A4 modulator at the time of screening for Part B. • The subject is using a breast cancer resistance protein (BCRP) substrate (e.g. pravastatin, rosuvastatin, glyburide) at the time of screening for Part B. • (Optionally) The subject has used any of the following medications within 60 days before Baseline: typical or atypical antipsychotics (including, but not limited to, clozapine, pimavanserin, olanzapine, quetiapine, risperidone, and aripiprazole); metoclopramide; prochlorperazine; methyldopa; tetrabenazine; deutetrabenazine; valbenazine; reserpine; or a prior history or continuation or initiation during the study of ambroxol at doses >120 mg/day.
Subjects are randomly assigned to three groups who receive i) Compound A 10 mg, once daily, oral administration, ii) Compound A 60 mg, once daily, oral administration, or iii) Placebo, once daily, oral administration. Subjects also receive their usual PD medications throughout the study. Randomization is stratified by major/severe (e.g., heterozygous for N370S, D409H, H255Q, D140H, G202R, L324P, I260T, L444P, A190T, R120W; homozygous for T369M or E326K) or minor/mild (e.g., heterozygous for T369M or E326K) PD risk-associated variant. Alternatively, randomization is stratified by severity as a mild or severe GBA1 variant as described in Parlar, 2023 (also see Appendix 1). […]

[2] = system: GluCer, GluSph and LacCer in plasma, PBMCs and CSF; assay: LTI-291-002: glycolipid biomarkers; type: in vivo, human; details: healthy subjects
Description: This study was a phase 1, randomized, double-blind, placebo-controlled, multiple ascending dose study of Compound A in 4 cohorts of middle-aged to elderly healthy participants (aged 52 to 75 years). […] A total of 39 healthy subjects were enrolled in 4 sequential cohorts. Subjects in each cohort received once-daily oral doses of 3 mg (n=7), 10 mg (n=8), 30 mg (n=8), or 60 mg (n=8) Compound A or placebo (n=8) for 14 days. Pharmacokinetic parameters were determined for each dose at Day 1, Day 7, and Day 14. Cerebrospinal fluid samples for Compound A concentrations were measured before the first dose and 4 hours after the last dose for each dose level. GluCer, glucosyl sphingosine (GluSph), and lactosyl-ceramide (LacCer) were measured in plasma, PBMCs, and CSF as biomarkers of pharmacological effects. Pharmacodynamic measurements consisted of battery of CNS (NeuroCart®) assessments including Saccadic Eye Movements, Smooth Pursuit Eye Movements, Adaptive Tracking, Body Sway, Visual Verbal Learning Test, and pharmaco-EEG.

[3] = system: GluCer in plasma and PBMCs; assay: LTI-291-001: GluCer biomarker; type: in vivo, human; details: single doses, vs placebo
Description: The pharmacodynamic evaluations consisted of a battery of CNS (NeuroCart®) assessments, including Saccadic Eye Movements, Smooth Pursuit Eye Movements, Adaptive Tracking, Body Sway, Visual Verbal Learning Test, and EEG. GluCer was measured in plasma and PBMCs as a biomarker of pharmacological effect.

clinical = details: both, human, plasma, 60 mg; for AUC(0-t): Madopar portion, geometric mean
Description: This was a Phase 1, non-randomized, open-label, 2-cohort, cross-over, DDI study in healthy male and female subjects.
In Cohort 2, a single oral dose 100 mg/25 mg levodopa-benserazide (Madopar®) IR was administered alone on Day 1.

[4] = LTI-291-004: fMRI, FDG-PET and functional outcome measures; type: in vivo, human
Description: This study was a Phase 1B, randomized, double-blind, placebo-controlled, multiple oral dose study of Compound A in 14 subjects (aged 51 to 81 years) with GBA-PD. The objectives of this study were to investigate the safety, tolerability, and PK of multiple once-daily oral administration of Compound A and to explore the accompanying pharmacodynamic changes. Subjects received once-daily oral doses of 10 mg (n=6) or 60 mg (2×30 mg capsules) (n=6) Compound A or placebo (n=2) for 28 consecutive days. PK samples were measured once on Day 7 and Day 14 and 4 times after the last dose on Day 28. Plasma concentrations were summarized at each time point, and no PK parameters were estimated. The PD evaluations included fMRI measures; FDG-PET to determine the metabolic rate of glucose in specific regions of the brain; and functional outcome measures (MDS-UPDRS Part III and the MMSE). GluCer, GluSph, and LacCer and other sphingolipids were measured in PBMCs and plasma as biomarkers of pharmacological effect.

CCCCCO[C@H]1CC[C@H](NC(=O)c2cnn3c(C)cc(C)nc23)CC1 [Compound A, 5,7-dimethyl-N-((1S*,4S)-4-(pentyloxy)cyclohexyl)pyrazolo[1,5-a]pyrimidine-3-carboxamide]
Mean plasma concentrations, 60 mg vs 10 mg ([1]; all measured time points): higher after the 60 mg dose than after the 10 mg dose | time to worsening (MDS-UPDRS based and other measures) ([1]; some subjects, Compound A 10 or 60 mg daily up to 78 weeks vs placebo): increased time to worsening | Mean change in lysosomal activity ([1]; vs placebo): higher | Mean change in plasma concentrations of neurofilament light chain ([1]; vs placebo): lower | Mean change of cerebral blood flow by arterial spin labeling with MRI ([1]; vs placebo): higher | mean change in the level of GluSph ([1]; vs placebo): higher | consistent pharmacodynamic effect on glycolipids ([2]; 14 days of dosing): not observed | GluCer and LacCer variables in CSF ([2]; 14 days): sporadic, statistically significant decreases | GluCer and LacCer variables in plasma and PBMCs ([2]; 14 days): Sporadic, statistically significant increases | GluCer variables in PBMCs [3]: Differences between treatment with Compound A and placebo were observed | GluCer variables in plasma [3]: No significant overall treatment effects | Cmax (clinical): 2030 ng/mL | Tmax (clinical): 2 h | AUC(0-t) (clinical; AUC0-24, 60 mg Compound A alone): 24000 ng·h/mL | AUC(0-t) (clinical; AUC0-t, 60 mg Compound A alone): 22800 ng·h/mL | default mode network (DMN) assessed by fMRI ([4]; 10 or 60 mg daily for 28 days, differences not statistically significant): improved the default mode network | MDS-UPDRS III and MMSE scores ([4]; Day 28 vs Day -1, all subjects): unchanged
